Literature values as cited in patent publication US6753013B1, “Pharmaceutical composition” (Leo Pharmaceutical Products, Ltd. A/S, priority 1999, dated 2004).

System: psoriatic skin
Conditions: simultaneous application of a steroid, such as betamethasone, onto psoriatic skin

## C=C1/C(=C\C=C2/CCC[C@]3(C)[C@@H]([C@H](C)/C=C/[C@@H](O)C4CC4)CC[C@@H]23)C[C@@H](O)C[C@@H]1O [calcipotriol]
  Skin irritative side effects: alleviated
